Assay: xn = mol fraction of the nth substance listed
Conditions: Fluid (supercritical or subcritical phases), Buoyancy - hydrostatic balance with magnetic suspension - one sinker

CCCCCCCCCCC [undecane] + O=C=O
Conditions | mass density [kg/m3]
313.18 K, 8001 kPa, x2 = 0.6797 | 776.08
313.18 K, 13999 kPa, x2 = 0.2483 | 745.92
313.18 K, 16002 kPa, x2 = 0.6797 | 808.24
313.18 K, 18070 kPa, x2 = 0.8874 | 825.37
313.18 K, 18977 kPa, x2 = 0.2483 | 749.97
313.19 K, 16008 kPa, x2 = 0.2483 | 747.58
313.19 K, 19014 kPa, x2 = 0.6797 | 817.41
313.2 K, 10002 kPa, x2 = 0.6797 | 785.54
313.2 K, 12013 kPa, x2 = 0.2483 | 744.22
313.21 K, 8004 kPa, x2 = 0.2483 | 740.68
313.21 K, 10007 kPa, x2 = 0.2483 | 742.45
313.21 K, 12003 kPa, x2 = 0.6797 | 793.85
313.21 K, 13997 kPa, x2 = 0.6797 | 801.3
313.21 K, 18002 kPa, x2 = 0.2483 | 749.16
313.22 K, 19000 kPa, x2 = 0.4641 | 772.52
313.23 K, 16004 kPa, x2 = 0.4641 | 769.05
313.23 K, 17996 kPa, x2 = 0.4641 | 771.37
313.24 K, 10003 kPa, x2 = 0.4641 | 761.59
313.24 K, 12000 kPa, x2 = 0.4641 | 764.15
313.24 K, 18003 kPa, x2 = 0.6797 | 814.33
313.25 K, 7997 kPa, x2 = 0.4641 | 758.91
313.26 K, 10039 kPa, x2 = 0.8874 | 773.99
313.26 K, 11990 kPa, x2 = 0.8874 | 789.91
313.26 K, 14074 kPa, x2 = 0.8874 | 803.72
313.27 K, 16066 kPa, x2 = 0.8874 | 815
313.27 K, 19015 kPa, x2 = 0.8874 | 829.45
313.29 K, 14002 kPa, x2 = 0.4641 | 766.59
323.11 K, 18008 kPa, x2 = 0.6797 | 792.77
323.14 K, 11997 kPa, x2 = 0.2483 | 736.47
323.15 K, 16006 kPa, x2 = 0.4641 | 758.48
323.17 K, 7997 kPa, x2 = 0.4641 | 747.66
323.17 K, 14005 kPa, x2 = 0.4641 | 755.92
323.17 K, 19002 kPa, x2 = 0.6797 | 795.98
323.19 K, 9992 kPa, x2 = 0.6797 | 757.97
323.2 K, 9999 kPa, x2 = 0.2483 | 734.59
323.2 K, 11998 kPa, x2 = 0.6797 | 768.5
323.2 K, 16011 kPa, x2 = 0.2483 | 739.99
323.2 K, 18000 kPa, x2 = 0.2483 | 741.72
323.23 K, 14011 kPa, x2 = 0.2483 | 738.22
323.23 K, 19001 kPa, x2 = 0.2483 | 742.54
323.25 K, 16042 kPa, x2 = 0.6797 | 785.42
323.25 K, 19040 kPa, x2 = 0.8874 | 798.97
323.26 K, 10008 kPa, x2 = 0.4641 | 750.42
323.26 K, 12004 kPa, x2 = 0.4641 | 753.18
323.26 K, 19006 kPa, x2 = 0.4641 | 762.09
323.27 K, 8000 kPa, x2 = 0.2483 | 732.65
323.27 K, 18003 kPa, x2 = 0.4641 | 760.86
323.3 K, 14004 kPa, x2 = 0.6797 | 777.17
323.31 K, 13971 kPa, x2 = 0.8874 | 764.29
323.31 K, 18051 kPa, x2 = 0.8874 | 793.06
323.32 K, 11984 kPa, x2 = 0.8874 | 745.06
323.32 K, 16015 kPa, x2 = 0.8874 | 779.89
333.05 K, 15991 kPa, x2 = 0.2483 | 732.43
333.06 K, 8008 kPa, x2 = 0.2483 | 724.69
333.06 K, 18013 kPa, x2 = 0.2483 | 734.27
333.07 K, 18027 kPa, x2 = 0.6797 | 770.02
333.07 K, 19007 kPa, x2 = 0.2483 | 735.15
333.09 K, 18042 kPa, x2 = 0.8874 | 758.98
333.11 K, 12010 kPa, x2 = 0.8874 | 701.45
333.14 K, 10000 kPa, x2 = 0.2483 | 726.64
333.14 K, 11987 kPa, x2 = 0.6797 | 745.9
333.14 K, 18003 kPa, x2 = 0.4641 | 751.23
333.14 K, 19000 kPa, x2 = 0.6797 | 773.23
333.16 K, 10004 kPa, x2 = 0.4641 | 739.87
333.16 K, 11998 kPa, x2 = 0.4641 | 742.85
333.16 K, 12018 kPa, x2 = 0.2483 | 728.6
333.16 K, 16006 kPa, x2 = 0.4641 | 748.54
333.16 K, 19039 kPa, x2 = 0.8874 | 765.91
333.17 K, 8004 kPa, x2 = 0.4641 | 736.7
333.17 K, 13998 kPa, x2 = 0.6797 | 754.83
333.17 K, 14005 kPa, x2 = 0.8874 | 721.01
333.17 K, 14013 kPa, x2 = 0.2483 | 730.5
333.19 K, 13997 kPa, x2 = 0.4641 | 745.71
333.19 K, 16015 kPa, x2 = 0.8874 | 741.91
333.21 K, 19000 kPa, x2 = 0.4641 | 752.46
333.23 K, 16000 kPa, x2 = 0.6797 | 762.53
343.19 K, 12000 kPa, x2 = 0.2483 | 720.79
343.2 K, 14004 kPa, x2 = 0.2483 | 722.81
343.2 K, 17005 kPa, x2 = 0.2483 | 725.76
343.21 K, 11985 kPa, x2 = 0.6797 | 729.1
343.24 K, 10010 kPa, x2 = 0.2483 | 718.69
343.25 K, 13002 kPa, x2 = 0.6797 | 731.82
343.25 K, 16001 kPa, x2 = 0.4641 | 738.42
343.26 K, 14997 kPa, x2 = 0.2483 | 723.76
343.26 K, 17011 kPa, x2 = 0.4641 | 739.9
343.27 K, 13999 kPa, x2 = 0.6797 | 736.08
343.27 K, 14997 kPa, x2 = 0.4641 | 736.9
343.27 K, 17005 kPa, x2 = 0.6797 | 747.33
343.28 K, 14027 kPa, x2 = 0.8874 | 673.56
343.28 K, 14995 kPa, x2 = 0.6797 | 739.94
343.28 K, 15997 kPa, x2 = 0.6797 | 743.79
343.28 K, 18018 kPa, x2 = 0.6797 | 750.83
343.3 K, 11002 kPa, x2 = 0.2483 | 719.69
343.3 K, 11003 kPa, x2 = 0.4641 | 730.57
343.3 K, 12002 kPa, x2 = 0.4641 | 732.18
343.3 K, 16007 kPa, x2 = 0.2483 | 724.72
343.3 K, 18033 kPa, x2 = 0.8874 | 723.56
343.31 K, 8003 kPa, x2 = 0.4641 | 725.39
343.31 K, 13003 kPa, x2 = 0.4641 | 733.77
343.32 K, 7999 kPa, x2 = 0.2483 | 716.46
343.32 K, 17016 kPa, x2 = 0.8874 | 713.66
343.32 K, 19002 kPa, x2 = 0.4641 | 742.71
343.34 K, 9998 kPa, x2 = 0.4641 | 728.83
343.34 K, 16020 kPa, x2 = 0.8874 | 702.38
343.34 K, 19012 kPa, x2 = 0.2483 | 727.57
343.35 K, 15016 kPa, x2 = 0.8874 | 689.29
343.35 K, 17999 kPa, x2 = 0.4641 | 741.25
343.37 K, 19004 kPa, x2 = 0.8874 | 731.75
343.37 K, 19021 kPa, x2 = 0.6797 | 753.8
343.39 K, 13010 kPa, x2 = 0.2483 | 721.68
343.4 K, 18008 kPa, x2 = 0.2483 | 726.58
343.41 K, 14002 kPa, x2 = 0.4641 | 735.22
353.08 K, 11003 kPa, x2 = 0.2483 | 711.86
353.09 K, 11995 kPa, x2 = 0.4641 | 721.32
353.12 K, 10003 kPa, x2 = 0.2483 | 710.71
353.13 K, 13017 kPa, x2 = 0.2483 | 714.01
353.13 K, 17994 kPa, x2 = 0.4641 | 731.12
353.14 K, 16002 kPa, x2 = 0.2483 | 717.14
353.19 K, 14997 kPa, x2 = 0.4641 | 726.33
353.23 K, 14005 kPa, x2 = 0.4641 | 724.68
353.31 K, 8017 kPa, x2 = 0.4641 | 712.03
353.31 K, 16999 kPa, x2 = 0.2483 | 718.15
353.33 K, 9996 kPa, x2 = 0.4641 | 717.59
353.33 K, 18011 kPa, x2 = 0.2483 | 719.15
353.34 K, 14014 kPa, x2 = 0.2483 | 715.02
353.34 K, 16078 kPa, x2 = 0.6797 | 710.53
353.35 K, 14995 kPa, x2 = 0.2483 | 716.05
353.38 K, 19001 kPa, x2 = 0.4641 | 732.5
353.39 K, 13004 kPa, x2 = 0.4641 | 722.88
353.4 K, 7998 kPa, x2 = 0.2483 | 708.29
353.4 K, 16003 kPa, x2 = 0.4641 | 727.85
353.4 K, 19017 kPa, x2 = 0.2483 | 720.08
353.41 K, 11004 kPa, x2 = 0.4641 | 719.34
353.42 K, 17964 kPa, x2 = 0.6797 | 722.19
353.43 K, 12003 kPa, x2 = 0.2483 | 712.78
353.43 K, 15953 kPa, x2 = 0.8874 | 651.24
353.43 K, 18953 kPa, x2 = 0.8874 | 692.79
353.43 K, 19052 kPa, x2 = 0.8874 | 691.56
353.44 K, 15006 kPa, x2 = 0.6797 | 702.5
353.44 K, 16998 kPa, x2 = 0.4641 | 729.38
353.44 K, 17006 kPa, x2 = 0.6797 | 716.04
353.44 K, 19016 kPa, x2 = 0.6797 | 727.96
353.45 K, 17976 kPa, x2 = 0.8874 | 681.1
353.46 K, 16003 kPa, x2 = 0.8874 | 649.3
353.46 K, 17018 kPa, x2 = 0.8874 | 665.72
353.52 K, 17018 kPa, x2 = 0.8874 | 668.1
353.52 K, 18000 kPa, x2 = 0.8874 | 678.79
